This is an account of results in PMC5354814, “In silico and in vitro drug screening identifies new therapeutic approaches for Ewing sarcoma” (Oncotarget, 2016).

Assay in all cases: In vitro high-throughput screen of FDA-approved drug library (CellTiter-Glo)
Holding throughout (type): cell-based

One assay has as its system A673. The conditions noted are these: for inhibition at 1 µM: Homo sapiens, read-out: % Inhibition A673. Here is the method: (§1) We screened, in parallel to the three computational approaches, an FDA-approved drug library containing 2,316 drugs (1,536 unique chemical entities). […] The drug screening study protocol employed is summarized in Supplementary Table S1.
(§2) Cells were grown to 80–90% confluence, harvested and aliquoted into 384-well plates (black μClear microplates, Greiner bio-one, Germany) at concentrations of 750–1,500 cells per well in a total volume of 25 μl/well using a Matrix Wellmate (Thermo Scientific). Cells were cultured for 72 hours in a 5% CO2 atmosphere at 37°C. Aliquots of 25 μl CellTiter-Glo® Reagent (Promega) were added directly to each well, the plates were incubated at room temperature for 20 min and the luminescence signal was measured according to the manufacturer's protocol. The measurements were made using Infinite® M200 Pro plate reader (Tecan, Switzerland). […] Data were normalized to percentage inhibition. […]
(§3) (A) Color scale for drug inhibition values. […]

A further assay relates to RD-ES. The settings on record: for inhibition at 1 µM: RD-ES, read-out: % Inhibition RD-ES. The procedure: as §1, §2, §3
Another assay has as its system Hs 919.T. The conditions noted are these: for inhibition at 1 µM: read-out: % Inhibition Hs 919.T. Here is the method:
as §1, §2, §3

In a further assay the test system is SK-ES-1. The conditions noted are these: for inhibition at 1 µM: Homo sapiens, read-out: % Inhibition SK-ES-1. The procedure: as §1, §2, §3
The mark [1] stands for this setting: 1 μmol/L drug, 72 hours, control cell line.
Where [2] appears, read: SK-ES1, 1 μmol/L drug, 72 hours.

The structures appear in SMILES notation. Read-outs that look alike come from different tables or passages of the source. Bounds are passed on as bounds.

As for `CN(Cc1cnc2nc(N)nc(N)c2n1)c1ccc(C(=O)N[C@@H](CCC(=O)O)C(=O)O)cc1` (racemic) [Methotrexate/Amethopterin (R,S), Methotrexate], the inhibition at 1 µM in the assay with A673 (A673, 1 μmol/L drug, 72 hours) was 89%; in the assay on RD-ES (1 μmol/L drug, 72 hours), 82%; in the assay on Hs 919.T. (setting [1]) it was below 50%; with SK-ES-1 (setting [2]) it was below 50%.

`COc1cc2c3cc1Oc1cc(ccc1O)C[C@@H]1c4c(cc(OC)c(O)c4Oc4ccc(cc4)C[C@@H]3N(C)CC2)CC[N+]1(C)C.Cl.O.O.O.O.O.[Cl-]` [(+)-Tubocurarine chloride]: the “% Inhibition A673” value in the assay on A673 (1 μmol/L drug, 72 hours) is listed as below 50%. For the same compound, the “% Inhibition RD-ES” value with RD-ES (1 μmol/L drug, 72 hours) came out at 51%. In addition, in the assay with Hs 919.T. (setting [1]), the “% Inhibition Hs 919.T.” value was below 50%. In addition, in the assay on SK-ES-1 (1 μmol/L drug, 72 hours), the “% Inhibition SK-ES-1” value is reported as below 50%.

With `CCCCC/C=C\C/C=C\C/C=C\C/C=C\CCCC(=O)Nc1ccc(O)cc1` [AM 404], the “% Inhibition A673” value in the assay with A673 (1 μmol/L drug, 72 hours) worked out at 65%. Also, the “% Inhibition RD-ES” value in the assay with RD-ES (1 μmol/L drug, 72 hours) is below 50%. The “% Inhibition Hs 919.T.” value with Hs 919.T. (setting [1]) is below 50%. Moreover, the “% Inhibition SK-ES-1” value with SK-ES-1 (1 μmol/L drug, 72 hours) is below 50%.

`CCCSc1ccc2nc(NC(=O)OC)[nH]c2c1` [Albendazole]: the inhibition at 1 µM with A673 (A673, 72 h) was 89%; in the assay on RD-ES (72 h), 93%; in the assay with Hs 919.T. (72 h), below 50%; with SK-ES-1 (SK-ES1, 72 h) it was 93%.

With `CCC(C)(C)c1ccc(CC(C)CN2C[C@@H](C)O[C@@H](C)C2)cc1` (stereo partly shown) [Amorolfine], the inhibition at 1 µM in the assay on A673 (A673, 1 μmol/L drug, 72 hours) is 56%; with RD-ES (1 μmol/L drug, 72 hours), below 50%; with Hs 919.T. (setting [1]), below 50%; in the assay on SK-ES-1 (setting [2]), below 50%.

Consider `CCCCCC[C@H]1C(=O)O[C@H](C)[C@H](NC(=O)c2cccc(NC=O)c2O)C(=O)O[C@@H](C)[C@@H]1OC(=O)CC(C)C` [Antimycin A], for which the inhibition at 1 µM with A673 (A673, 1 μmol/L drug, 72 hours) was below 50%; in the assay on RD-ES (1 μmol/L drug, 72 hours) it was 69%; in the assay with Hs 919.T. (setting [1]), below 50%; with SK-ES-1 (setting [2]) it was below 50%.

Regarding `C=C1[C@@H]2CC[C@H]3[C@]4(C)C[C@H](O[C@@H]5O[C@H](CO)[C@@H](OS(=O)(=O)[O-])[C@H](OS(=O)(=O)[O-])[C@H]5OC(=O)CC(C)C)C[C@@H](C(=O)O)[C@H]4CC[C@]3(C2)[C@H]1O.[K+].[K+]` [Atractyloside potassium salt], in the assay with A673 (1 μmol/L drug, 72 hours), the “% Inhibition A673” value was found to be 99%. Also, in the assay with RD-ES (1 μmol/L drug, 72 hours), the “% Inhibition RD-ES” value is 98%. Also, the “% Inhibition Hs 919.T.” value in the assay on Hs 919.T. (setting [1]) was below 50%. The “% Inhibition SK-ES-1” value in the assay on SK-ES-1 (1 μmol/L drug, 72 hours) stood at 99%.

Regarding `Nc1nc(O)c2[nH]nnc2n1` [Azaguanine-8], the “% Inhibition A673” value with A673 (1 μmol/L drug, 72 hours) came to 83%. The “% Inhibition RD-ES” value in the assay on RD-ES (1 μmol/L drug, 72 hours) was below 50%. In addition, the “% Inhibition Hs 919.T.” value in the assay on Hs 919.T. (setting [1]) was below 50%. The “% Inhibition SK-ES-1” value with SK-ES-1 (1 μmol/L drug, 72 hours) is listed as below 50%.

For `Cn1cnc([N+](=O)[O-])c1Sc1ncnc2nc[nH]c12` [Azathioprine], the inhibition at 1 µM was below 50% with A673 (A673, 1 μmol/L drug, 72 hours); below 50% with RD-ES (1 μmol/L drug, 72 hours); below 50% in the assay on Hs 919.T. (setting [1]); 52% in the assay on SK-ES-1 (setting [2]).

As to `CC[C@@]1(O)C(=O)OCc2c1cc1n(c2=O)Cc2cc3ccccc3nc2-1` [Camptothecine (S,+)], in the assay on A673 (1 μmol/L drug, 72 hours), the “% Inhibition A673” value is 99%. The “% Inhibition RD-ES” value with RD-ES (1 μmol/L drug, 72 hours) is listed as 97%. For the same compound, in the assay with Hs 919.T. (setting [1]), the “% Inhibition Hs 919.T.” value is below 50%. The “% Inhibition SK-ES-1” value with SK-ES-1 (1 μmol/L drug, 72 hours) is listed as 96%.

On to `Nc1nc(Cl)nc2c1ncn2[C@H]1C[C@H](O)[C@@H](CO)O1` [Cladribine], for which the inhibition at 1 µM was 87% with A673 (A673, 1 μmol/L drug, 72 hours); 99% in the assay on RD-ES (1 μmol/L drug, 72 hours); below 50% in the assay with Hs 919.T. (setting [1]); 89% with SK-ES-1 (setting [2]).

As to `Nc1nc(Cl)nc2c1ncn2[C@@H]1O[C@H](CO)[C@@H](O)[C@@H]1F` [Clofarabine], the inhibition at 1 µM in the assay with A673 (A673, 1 μmol/L drug, 72 hours) was 93%; with RD-ES (1 μmol/L drug, 72 hours), 99%; in the assay on Hs 919.T. (setting [1]), below 50%; in the assay on SK-ES-1 (setting [2]), 98%.

Take `N=c1ccn2c(n1)O[C@H]1[C@H](O)[C@@H](CO)O[C@H]12` [Cyclocytidine]: the inhibition at 1 µM in the assay with A673 (A673, 1 μmol/L drug, 72 hours) is 86%; in the assay with RD-ES (1 μmol/L drug, 72 hours), 83%; in the assay with Hs 919.T. (setting [1]) it was below 50%; in the assay on SK-ES-1 (setting [2]), 98%.
